Reference: patent publication US7465815B2, “Cannabinoid receptor modulator” (priority 2003, dated 2008)
Where two headings read alike, the source gives them in different places. One block for each compound: values may come before it.

Assays:
human CB2 receptor = biological target: T1, human CB2 receptor (Homo sapiens, UniProt P34972); experiment: [3H]-CP55,940 binding inhibition assay, CHO cell membrane fraction expressing human CB2 receptor
T1 construct: expressed in transfected cells; host or cells: CHO cells (membrane fraction)
T1 sequence (P34972 whole entry): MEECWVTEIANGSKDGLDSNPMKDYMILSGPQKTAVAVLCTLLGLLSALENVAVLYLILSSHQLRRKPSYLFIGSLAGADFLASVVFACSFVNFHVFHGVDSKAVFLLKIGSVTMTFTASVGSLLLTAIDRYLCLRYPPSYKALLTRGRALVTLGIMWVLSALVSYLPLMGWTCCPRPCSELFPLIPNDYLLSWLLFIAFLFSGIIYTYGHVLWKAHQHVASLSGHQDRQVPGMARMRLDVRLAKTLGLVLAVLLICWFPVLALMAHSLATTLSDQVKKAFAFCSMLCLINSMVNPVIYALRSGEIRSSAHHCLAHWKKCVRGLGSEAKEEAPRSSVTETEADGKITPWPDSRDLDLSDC
Procedure: (§1) [^3H]-CP55,940 binding assay with a cell membrane fraction expressing human CB1 and CB2 receptor
(§2) [^3H]-CP55940 binding inhibition assay was conducted by incubating a CHO cell membrane fraction expressing human CB1 receptor and the test compound and 500 pM [^3H]-CP55940 in reaction buffer (50 mM Tris-HCl (pH7.4), 5 mM MgCl2, 2.5 mM EDTA and 0.5% BSA (fatty acid free)) at room temperature for 60 minutes. The reaction solution was filtered through GF/C filter, washed with 300 μl of washing buffer (50 mM Tris-HCl (pH7.4), 0.05% BSA (fatty acid free)) four times, and the radioactivity of the filter was measured with a Top Count scintillation counter (Packard). As results, the test compound has inhibited binding of [^3H]-CP55940 to the membrane fraction dose-dependently.
(§3) The inhibitory activity of the test compound to [^3H]-CP55940 binding was calculated by percent on the basis that radioactivity is 100% when only 500 pM [^3H]-CP55940 was added, and 0% when 500 pM [^3H]-CP55940 and 100 nM CP55940 were added at the same time. Further, IC50 value of the test compound was calculated by analyzing concentrations and percents of the test compound with PRISM 3.0 (Graphpad Software, Inc.).
The same assay was also conducted for a CHO cell membrane fraction expressing human CB2 receptor, and the inhibitory activity to [^3H]-CP55940 binding was calculated.

CB1 receptor = biological target: T2, CB1 receptor (Mus musculus, UniProt P47746); experiment: Body temperature-lowering action on mouse (CB1 receptor agonistic activity in vivo); conditions: Jcl: ICR male mice, 1 mg/kg i.p., rectal temperature 30 minutes after administration, compared with control group
T2 construct: from tissue; host or cells: whole animal, Jcl: ICR male mice
T2 sequence (P47746 whole entry): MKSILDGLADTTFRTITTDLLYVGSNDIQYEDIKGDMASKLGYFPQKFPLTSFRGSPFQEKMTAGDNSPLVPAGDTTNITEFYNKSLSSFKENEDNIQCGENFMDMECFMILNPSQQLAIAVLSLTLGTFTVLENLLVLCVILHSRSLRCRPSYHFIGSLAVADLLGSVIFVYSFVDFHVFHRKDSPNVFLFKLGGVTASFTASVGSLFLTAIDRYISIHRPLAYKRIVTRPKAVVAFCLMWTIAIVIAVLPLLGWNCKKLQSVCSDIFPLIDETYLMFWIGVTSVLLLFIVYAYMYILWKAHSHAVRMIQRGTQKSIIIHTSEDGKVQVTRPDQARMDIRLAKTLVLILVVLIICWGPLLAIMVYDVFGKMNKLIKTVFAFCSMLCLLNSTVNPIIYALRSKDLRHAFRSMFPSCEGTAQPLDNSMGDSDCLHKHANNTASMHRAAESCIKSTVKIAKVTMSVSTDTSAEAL
Procedure: Body temperature-lowering action on mouse
CB1 receptor agonistic activity of the compound of the present invention in vivo was evaluated by investigating the effect on the body temperature of mouse after the drug was administered to the mouse. In this experiment, Jcl: ICR male mice (5 weeks old) were used. After measuring the rectal temperature with a thermometer (Physitemp BAT-12) that was connected to a probe for measuring body temperature, the compound dissolved in 2.2% EtOH and 5% G2-β-cyclodextrin (solvent) was administered intraperitoneally. Solvent only was administered to the control group. 30 minutes after administration, rectal temperature was measured again. The experiment was conducted for 4 subjects per a group.

human CB1 receptor = biological target: T3, human CB1 receptor (Homo sapiens, UniProt P21554); experiment: [3H]-CP55,940 binding inhibition assay, CHO cell membrane fraction expressing human CB1 receptor
T3 construct: expressed in transfected cells; host or cells: CHO cells (membrane fraction)
T3 sequence (P21554 whole entry): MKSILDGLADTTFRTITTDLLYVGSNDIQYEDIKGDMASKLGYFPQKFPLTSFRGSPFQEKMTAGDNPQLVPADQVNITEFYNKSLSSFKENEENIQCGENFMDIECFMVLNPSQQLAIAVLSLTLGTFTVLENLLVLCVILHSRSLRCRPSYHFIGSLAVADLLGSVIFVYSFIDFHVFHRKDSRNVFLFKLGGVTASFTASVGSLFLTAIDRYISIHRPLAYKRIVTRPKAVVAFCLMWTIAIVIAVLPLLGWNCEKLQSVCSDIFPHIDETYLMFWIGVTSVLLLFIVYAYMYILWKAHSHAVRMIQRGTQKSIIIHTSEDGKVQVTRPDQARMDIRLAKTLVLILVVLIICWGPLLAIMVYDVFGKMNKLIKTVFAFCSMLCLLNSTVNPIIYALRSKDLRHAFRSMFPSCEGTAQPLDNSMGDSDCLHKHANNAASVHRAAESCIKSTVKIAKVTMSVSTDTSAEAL
Procedure: as §1, §2, §3

Compound: Cc1c(NC(=O)CC(C)(C)C)c(C)c2c(c1C(C)O)OCC2c1ccc(C(C)C)cc1 (stereo not drawn) [Example 22, N-(7-(1-Hydroxyethyl)-3-(4-isopropylphenyl)-4,6-dimethyl-2,3-dihydro-1-benzofuran-5-yl)-3,3-dimethylbutanamide]
IC50 (human CB2 receptor): < 10 nM | Test Results (body temperature-lowering action) (CB1 receptor): Effective (estimated as effective if the compound of the present invention lowered the body temperature substantially by 1 °C or more when compared with the control group 30 minutes after administration of 1 mg/kg, i.p.) | IC50 (human CB1 receptor): 11 nM

Compound: Cc1c(Br)c2c(c(C)c1NC(=O)CC(C)(C)C)C(c1ccc(C(C)C)cc1)CO2 (stereo not drawn) [Example 35, N-(7-Bromo-3-(4-isopropylphenyl)-4,6-dimethyl-2,3-dihydro-1-benzofuran-5-yl)-3,3-dimethylbutanamide]
IC50 (human CB2 receptor): < 10 nM | Test Results (body temperature-lowering action) (CB1 receptor): Effective (estimated as effective if the compound of the present invention lowered the body temperature substantially by 1 °C or more when compared with the control group 30 minutes after administration of 1 mg/kg, i.p.) | IC50 (human CB1 receptor): < 10 nM

Compound: Cc1cc(C)c2c(c1)SCC2c1ccc(C(C)C)cc1 (stereo not drawn) [Reference Example 212]
IC50 (human CB2 receptor): < 10 nM | IC50 (human CB1 receptor): 69 nM

Compound: Cc1c(NC(=O)CC(C)(C)C)c(C)c2c(c1C(C)O)OCC2c1ccc(C(C)C)cc1 (single isomer, unassigned) [Example 28, N-(7-(1-Hydroxyethyl)-3-(4-isopropylphenyl)-4,6-dimethyl-2,3-dihydro-1-benzofuran-5-yl)-3,3-dimethylbutanamide]
IC50 (human CB2 receptor): < 10 nM | Test Results (body temperature-lowering action) (CB1 receptor): Effective (estimated as effective if the compound of the present invention lowered the body temperature substantially by 1 °C or more when compared with the control group 30 minutes after administration of 1 mg/kg, i.p.) | IC50 (human CB1 receptor): < 10 nM

Compound: Cc1c(NC(=O)CC(C)(C)C)c(C)c2c(c1C(C)O)OCC2c1ccc(C(C)C)cc1 (single isomer, unassigned) [Example 29, N-(7-(1-Hydroxyethyl)-3-(4-isopropylphenyl)-4,6-dimethyl-2,3-dihydro-1-benzofuran-5-yl)-3,3-dimethylbutanamide]
IC50 (human CB2 receptor; read-out: CB2 IC50 value, 500 pM [3H]-CP55940, CHO cell membrane fraction expressing human CB2 receptor): < 10 nM | Test Results (body temperature-lowering action) (CB1 receptor): Effective (estimated as effective if the compound of the present invention lowered the body temperature substantially by 1 °C or more when compared with the control group 30 minutes after administration of 1 mg/kg, i.p.) | IC50 (human CB1 receptor; read-out: CB1 IC50 value, 500 pM [3H]-CP55940, CHO cell membrane fraction expressing human CB1 receptor, room temperature, 60 minutes): < 10 nM

Compound: CCCc1c(C)c(NC(=O)CC(C)(C)C)c(C)c2c1OCC2c1ccc(C(C)C)cc1 (stereo not drawn) [Example 34, N-(3-(4-Isopropylphenyl)-4,6-dimethyl-7-propyl-2,3-dihydro-1-benzofuran-5-yl)-3,3-dimethylbutanamide]
IC50 (human CB2 receptor): < 10 nM | Test Results (body temperature-lowering action) (CB1 receptor): Effective (estimated as effective if the compound of the present invention lowered the body temperature substantially by 1 °C or more when compared with the control group 30 minutes after administration of 1 mg/kg, i.p.) | IC50 (human CB1 receptor): < 10 nM

Compound: Cc1ccc(C)c2c1OC(=O)C2c1ccc(C(C)C)cc1 (stereo not drawn) [Reference Example 230]
IC50 (human CB2 receptor): 55 nM | IC50 (human CB1 receptor): 55 nM

Compound: Cc1c(C)c2c(c(C)c1NC(=O)CC(C)(C)C)[C@@H](c1ccc(C(C)C)cc1)CO2 [Example 7, (+)-N-((3R)-3-(4-Isopropylphenyl)-4,6,7-trimethyl-2,3-dihydro-1-benzofuran-5-yl)-3,3-dimethylbutanamide]
IC50 (human CB2 receptor): < 10 nM | Test Results (body temperature-lowering action) (CB1 receptor): Effective (estimated as effective if the compound of the present invention lowered the body temperature substantially by 1 °C or more when compared with the control group 30 minutes after administration of 1 mg/kg, i.p.) | IC50 (human CB1 receptor): < 10 nM

Compound: Cc1c(C)c(C(CO)c2ccc(C(C)C)cc2)c(O)c(C)c1Br (stereo not drawn) [Reference Example 234]
IC50 (human CB2 receptor): 31 nM | IC50 (human CB1 receptor): 40 nM

Compound: Cc1ccc(C)c(C(CO)c2ccc(C(C)C)cc2)c1O (stereo not drawn) [Reference Example 233]
IC50 (human CB2 receptor): 47 nM | IC50 (human CB1 receptor): 38 nM

Compound: COc1c(C)c(NC(=O)CC(C)(C)C)c(C)c2c1OCC2c1ccc(C(C)C)cc1 (stereo not drawn) [Example 36, N-(3-(4-Isopropylphenyl)-7-methoxy-4,6-dimethyl-2,3-dihydro-1-benzofuran-5-yl)-3,3-dimethylbutanamide]
IC50 (human CB2 receptor): < 10 nM | Test Results (body temperature-lowering action) (CB1 receptor): Effective (estimated as effective if the compound of the present invention lowered the body temperature substantially by 1 °C or more when compared with the control group 30 minutes after administration of 1 mg/kg, i.p.) | IC50 (human CB1 receptor): < 10 nM

Compound: Cc1c(C)c2c(c(C)c1NC(=O)CC(C)(C)C)C(c1ccc(C(C)C)cc1)CO2 (stereo not drawn) [Example 1, N-(3-(4-Isopropylphenyl)-4,6,7-trimethyl-2,3-dihydro-1-benzofuran-5-yl)-3,3-dimethylbutanamide]
IC50 (human CB2 receptor): < 10 nM | Test Results (body temperature-lowering action) (CB1 receptor): Effective (estimated as effective if the compound of the present invention lowered the body temperature substantially by 1 °C or more when compared with the control group 30 minutes after administration of 1 mg/kg, i.p.) | IC50 (human CB1 receptor): 20 nM

IC50 (human CB2 receptor; 500 pM [3H]-CP55940, CHO cell membrane fraction expressing human CB2 receptor, read-out: CB2 IC50 value): 560 nM | IC50 (human CB1 receptor; 500 pM [3H]-CP55940, CHO cell membrane fraction expressing human CB1 receptor, room temperature, 60 minutes, read-out: CB1 IC50 value): 110 nM
Compound: CCOC(=O)C(C)(C)Oc1cc(C)cc(C)c1Cc1ccc(C(C)C)cc1 [Reference Example 153]

Compound: CCc1c(C)c(NC(=O)CC(C)(C)C)c(C)c2c1OCC2c1ccc(C(C)C)cc1 (stereo not drawn) [Example 23, N-(7-Ethyl-3-(4-isopropylphenyl)-4,6-dimethyl-2,3-dihydro-1-benzofuran-5-yl)-3,3-dimethylbutanamide]
IC50 (human CB2 receptor): < 10 nM | Test Results (body temperature-lowering action) (CB1 receptor): Effective (estimated as effective if the compound of the present invention lowered the body temperature substantially by 1 °C or more when compared with the control group 30 minutes after administration of 1 mg/kg, i.p.) | IC50 (human CB1 receptor): < 10 nM

Compound: Cc1c(NC(=O)CC(C)(C)C)c(C)c(C(C)(C)O)c2c1C(c1ccc(C(C)C)cc1)CO2 (stereo not drawn) [Example 33, N-(7-(1-Hydroxy-1-methylethyl)-3-(4-isopropylphenyl)-4,6-dimethyl-2,3-dihydro-1-benzofuran-5-yl)-3,3-dimethylbutanamide]
IC50 (human CB2 receptor): < 10 nM | Test Results (body temperature-lowering action) (CB1 receptor): Effective (estimated as effective if the compound of the present invention lowered the body temperature substantially by 1 °C or more when compared with the control group 30 minutes after administration of 1 mg/kg, i.p.) | IC50 (human CB1 receptor): 14 nM

Compound: CC(=O)c1c(C)c(NC(=O)CC(C)(C)C)c(C)c2c1OCC2c1ccc(C(C)C)cc1 (stereo not drawn) [Example 32, N-(7-Acetyl-3-(4-isopropylphenyl)-4,6-dimethyl-2,3-dihydro-1-benzofuran-5-yl)-3,3-dimethylbutanamide]
IC50 (human CB2 receptor): < 10 nM | Test Results (body temperature-lowering action) (CB1 receptor): Effective (estimated as effective if the compound of the present invention lowered the body temperature substantially by 1 °C or more when compared with the control group 30 minutes after administration of 1 mg/kg, i.p.) | IC50 (human CB1 receptor): < 10 nM

Compound: CCC(O)c1c(C)c(NC(=O)CC(C)(C)C)c(C)c2c1OCC2c1ccc(C(C)C)cc1 (single isomer, unassigned) [Example 31, N-(7-(1-Hydroxypropyl)-3-(4-isopropylphenyl)-4,6-dimethyl-2,3-dihydro-1-benzofuran-5-yl)-3,3-dimethylbutanamide]
IC50 (human CB2 receptor): < 10 nM | Test Results (body temperature-lowering action) (CB1 receptor): Effective (estimated as effective if the compound of the present invention lowered the body temperature substantially by 1 °C or more when compared with the control group 30 minutes after administration of 1 mg/kg, i.p.) | IC50 (human CB1 receptor): < 10 nM

Compound: CCC(=O)Nc1c(C)c(C)c2c(c1C)C(c1ccc(C(C)C)cc1)CO2 (stereo not drawn) [Example 9, N-(3-(4-Isopropylphenyl)-4,6,7-trimethyl-2,3-dihydro-1-benzofuran-5-yl)propionamide]
IC50 (human CB2 receptor): 11 nM | IC50 (human CB1 receptor): 79 nM

Compound: Cc1c(C)c2c(c(C)c1NC(=O)NC(C)(C)C)C(c1ccc(C(C)C)cc1)CO2 (stereo not drawn) [Example 14, N-(tert-Butyl)-N′-(3-(4-isopropylphenyl)-4,6,7-trimethyl-2,3-dihydro-1-benzofuran-5-yl)urea]
IC50 (human CB2 receptor): < 10 nM | Test Results (body temperature-lowering action) (CB1 receptor): Effective (estimated as effective if the compound of the present invention lowered the body temperature substantially by 1 °C or more when compared with the control group 30 minutes after administration of 1 mg/kg, i.p.) | IC50 (human CB1 receptor): 20 nM
